Test results as given in patent publication US9115143B2, “Substituted indole derivatives as gamma secretase modulators” (Janssen Pharmaceuticals, Inc., priority 2011, dated 2015).

Key:
Aβ42 [1] = assay: In vivo efficacy B-1b: brain soluble Aβ42, MSD electrochemiluminescence multiplex; settings: mouse brain soluble fraction, dose 30 mg/kg oral dosing, 4 h after dose; untreated control set at 100; read-out: Aβ42 (% vs Ctrl)_Mean
Text: (§1) To determine whether acute administration of an Aβ42 lowering agent would reduce Aβ42 levels in vivo, non-transgenic rodents, e.g. mice or rats were used. Animals treated with the Aβ42 lowering agent were examined and compared to those untreated or treated with vehicle and brain levels of soluble Aβ42, Aβ40, Aβ38, and Aβ37 were quantitated by Meso Scale Discovery's (MSD) electrochemiluminescence detection technology. Treatment periods varied from hours (h) to days and were adjusted based on the results of the Aβ42 lowering once a time course of onset of effect could be established.
(§2) A typical protocol for measuring Aβ42 lowering in vivo is shown but it is only one of many variations that could be used to optimize the levels of detectable Aβ. For example, Aβ42 lowering compounds were formulated in 20% of Captisol® (a sulfobutyl ether of β-cyclodextrin) in water or 20% hydroxypropyl β cyclodextrin. The Aβ42 lowering agents were administered as a single oral dose or by any acceptable route of administration to overnight fasted animals. After 4 h, the animals were sacrificed and Aβ42 levels were analysed.
(§3) Blood was collected by decapitation and exsanguinations in EDTA-treated collection tubes. Blood was centrifuged at 1900 g for 10 minutes (min) at 4° C. and the plasma recovered and flash frozen for later analysis. The brain was removed from the cranium and hindbrain. The cerebellum was removed and the left and right hemisphere were separated. The left hemisphere was stored at −18° C. for quantitative analysis of test compound levels. The right hemisphere was rinsed with phosphate-buffered saline (PBS) buffer and immediately frozen on dry ice and stored at −80° C. until homogenization for biochemical assays.
(§4) Mouse brains from non-transgenic animals were resuspended in 8 volumes of 0.4% DEA (diethylamine)/50 mM NaCl containing protease inhibitors (Roche-11873580001 or 04693159001) per gram of tissue, e.g. for 0.158 g brain, add 1.264 ml of 0.4% DEA. All samples were homogenized in the FastPrep-24 system (MP Biomedicals) using lysing matrix D (MPBio #6913-100) at 6 m/s for 20 seconds. Homogenates were centrifuged at 20800×g for 5 min and supernatants collected. Supernatants were centrifuged at 221.300×g for 50 min. The resulting high speed supernatants were then transferred to fresh eppendorf tubes. Nine parts of supernatant were neutralized with 1 part 0.5 M Tris-HCl pH 6.8 and used to quantify Aβ.
(§5) To quantify the amount of Aβ42, Aβ40, Aβ38, and Aβ37 in the soluble fraction of the brain homogenates, simultaneous specific detection of Aβ42, Aβ40, Aβ38, and Aβ37 was performed using MSD's electro-chemiluminescence multiplex detection technology. In this assay purified monoclonal antibodies specific for Abeta37 (JRD/Aβ37/3), Abeta38 (J&JPRD/Aβ38/5), Abeta40 (JRF/cAβ40/28), and Abeta42 (JRF/cAβ42/26) were coated on MSD 4-plex plates. Briefly, the standards (a dilution of synthetic Aβ42, Aβ40, Aβ38, and Aβ37) were prepared in 1.5 ml Eppendorf tube in Ultraculture, with final concentrations ranging from 10000 to 0.3 pg/m. The samples and standards were co-incubated with Sulfo-tag labelled JRF/rAβ/2 antibody to the N-terminus of Aβ as detector antibody. 50 μl of conjugate/sample or conjugate/standards mixtures were then added to the antibody-coated plate. The plate was allowed to incubate overnight at 4° C. in order to allow formation of the antibody-amyloid complex. Following this incubation and subsequent wash steps the assay was finished by adding read buffer according to the manufacturer's instructions (Meso Scale Discovery, Gaitherburg, Md.).
(§6) The SULFO-TAG emits light upon electrochemical stimulation initiated at the electrode. MSD Sector instrument SI6000 was used for signal read-out.
In this model a Aβ42 lowering compared to untreated animals would be advantageous, in particular a Aβ42 lowering with at least 10%, more in particular a Aβ42 lowering with at least 20%. […]

Aβ40 = assay: In vivo efficacy B-1b/B-2b: brain soluble Aβ40, MSD electrochemiluminescence multiplex; settings: mouse brain soluble fraction, dose 30 mg/kg oral dosing, 4 h after dose; untreated control set at 100; read-out: Aβ40 (% vs Ctrl)_Mean
Text: as §1, §2, §3, §4, §5, §6
The results are shown in Table 5 (dose 30 mg/kg oral dosing) (value for untreated animals as control (Ctrl) was set at 100): […]

Aβ38 = assay: In vivo efficacy B-2b: brain soluble Aβ38, MSD electrochemiluminescence multiplex; settings: mouse brain soluble fraction, dose 30 mg/kg oral dosing, 4 h after dose; untreated control set at 100; read-out: Aβ38 (% vs Ctrl)_Mean
Text: as §1, with “Aβ38 increasing agents” for “Aβ42 lowering agent”, “increase Aβ38” for “reduce Aβ42”, “MSD” for “Meso Scale Discovery's (MSD)”, “Aβ38 increase” for “Aβ42 lowering”
as §2, with “measuring Aβ38 increase” for “measuring Aβ42 lowering”, “example, Aβ38 increasing agents” for “example, Aβ42 lowering compounds”, “The Aβ38 increasing” for “The Aβ42 lowering”, “and Aβ38” for “and Aβ42”
as §3, §4, §5, §6
In this model a Aβ38 increase compared to untreated animals would be advantageous, in particular a Aβ38 increase with at least 10%, more in particular a Aβ38 increase with at least 20%. […]

Aβ42 [2] = assay: Screening for γ-secretase-modulating activity: Aβ42 in supernatant of SKNBE2 cells carrying hAPP 695 wild type (Alphalisa); type: cell-based, human; settings: SKNBE2 human neuroblastoma cells carrying hAPP 695 wild type; overnight incubation; Alphalisa on supernatant
Outline: (§7)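 Secreted Aβ42 (C-terminal/N-terminal antibody pair) and Aβtotal (N-terminal/mid-region pair) were quantified by AlphaLISA after overnight compound exposure of wild-type hAPP 695 SKNBE2 cells at 37 °C. Values expressed relative to compound-free maximum, with IC50 from nonlinear 4-parameter regression.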

Aβtotal = assay: Screening for γ-secretase-modulating activity: Aβtotal in supernatant of SKNBE2 cells carrying hAPP 695 wild type (Alphalisa); type: cell-based, human; settings: overnight incubation, Alphalisa on supernatant
Outline: as §7

[3] = SKNBE2 human neuroblastoma cells carrying hAPP 695 wild type

## COc1c(C#N)ccc2[nH]c(-c3nc4n(n3)CCOC4c3cccc(C)c3F)cc12 (single isomer, unassigned) [Compound 148, 2-[8-(2-fluoro-3-methylphenyl)-5,6-dihydro-8H-[1,2,4]triazolo[5,1-c][1,4]oxazin-2-yl]-4-methoxy-1H-indole-5-carbonitrile]
Aβ42 [1]
  response vs control in vivo at 30 mg/kg: 110%
Aβ40
  response vs control in vivo at 30 mg/kg: 118%
Aβ38
  response vs control in vivo at 30 mg/kg: 132%
Aβ42 [2]
  IC50: 74 nM
Aβtotal; Homo sapiens, SKNBE2, SKNBE2 human neuroblastoma cells carrying hAPP 695 wild type
  IC50: > 10000 nM

## COc1c(C#N)ccc2[nH]c(-c3cn4c(n3)C(c3cccc(F)c3C)OCC4)cc12 (stereo not drawn) [Compound 41, 2-[8-(3-fluoro-2-methylphenyl)-5,6-dihydro-8H-imidazo[2,1-c][1,4]oxazin-2-yl]-4-methoxy-1H-indole-5-carbonitrile]
Aβ42 [1]
  response vs control in vivo at 30 mg/kg: 34%
Aβ40
  response vs control in vivo at 30 mg/kg: 35%
Aβ38
  response vs control in vivo at 30 mg/kg: 140%
Aβ42 [2]
  IC50: 20 nM
Aβtotal; [3]
  IC50: > 10000 nM

## COc1c(C#N)ccc2[nH]c(-c3cn4c(n3)C(c3ccccc3Cl)OCC4)cc12 (stereo not drawn) [Compound 50, 2-[8-(2-chlorophenyl)-5,6-dihydro-8H-imidazo[2,1-c][1,4]oxazin-2-yl]-4-methoxy-1H-indole-5-carbonitrile]
other
  melting point: 254.3 °C
Aβ42 [1]
  response vs control in vivo at 30 mg/kg: 43%
Aβ40
  response vs control in vivo at 30 mg/kg: 46%
Aβ38
  response vs control in vivo at 30 mg/kg: 141%
Aβ42 [2]
  IC50: 31 nM
Aβtotal; [3]
  IC50: > 10000 nM

## COc1c(C#N)ccc2[nH]c(-c3nc4n(n3)CCCOC4c3ccc(F)cc3C)cc12 (stereo not drawn) [Compound 53, 2-[9-(4-fluoro-2-methylphenyl)-6,7-dihydro-5H,9H-[1,2,4]triazolo[5,1-c][1,4]oxazepin-2-yl]-4-methoxy-1H-indole-5-carbonitrile]
Aβ42 [1]
  response vs control in vivo at 30 mg/kg: 74%
Aβ40
  response vs control in vivo at 30 mg/kg: 79%
Aβ38
  response vs control in vivo at 30 mg/kg: 78%
Aβ42 [2]
  IC50: 35 nM
Aβtotal; [3]
  IC50: > 10000 nM

## COc1c(C#N)ccc2[nH]c(-c3cn4c(n3)C(c3c(C)cccc3F)OCC4)cc12 (stereo not drawn) [Compound 138, 2-[8-(2-fluoro-6-methylphenyl)-5,6-dihydro-8H-imidazo[2,1-c][1,4]oxazin-2-yl]-4-methoxy-1H-indole-5-carbonitrile]
other
  melting point: 297 °C
Aβ42 [1]
  response vs control in vivo at 30 mg/kg: 75%
Aβ40
  response vs control in vivo at 30 mg/kg: 90%
Aβ38
  response vs control in vivo at 30 mg/kg: 117%
Aβ42 [2]
  IC50: 19 nM
Aβtotal; [3]
  IC50: > 10000 nM

## COc1c(C#N)ccc2[nH]c(-c3nc4n(n3)CCOC4c3cccc(F)c3C)cc12 (stereo not drawn) [Compound 147, 2-[8-(3-fluoro-2-methylphenyl)-5,6-dihydro-8H-[1,2,4]triazolo[5,1-c][1,4]oxazin-2-yl]-4-methoxy-1H-indole-5-carbonitrile]
other
  melting point: 240.4 °C
Aβ42 [1]
  response vs control in vivo at 30 mg/kg: 67%
Aβ40
  response vs control in vivo at 30 mg/kg: 79%
Aβ38
  response vs control in vivo at 30 mg/kg: 160%
Aβ42 [2]
  IC50: 31 nM
Aβtotal; [3]
  IC50: > 10000 nM

## COc1c(C#N)ccc2[nH]c(-c3cn4c(n3)C(c3c(F)cccc3C(F)(F)F)OCC4)cc12 (stereo not drawn) [Compound 153, 2-[8-[2-fluoro-6-(trifluoromethyl)phenyl]-5,6-dihydro-8H-imidazo[2,1-c][1,4]oxazin-2-yl]-4-methoxy-1H-indole-5-carbonitrile]
Aβ42 [1]
  response vs control in vivo at 30 mg/kg: 60%
Aβ40
  response vs control in vivo at 30 mg/kg: 76%
Aβ38
  response vs control in vivo at 30 mg/kg: 236%
Aβ42 [2]
  IC50: 36 nM
Aβtotal; [3]
  IC50: > 10000 nM

## COc1c(C#N)ccc2[nH]c(-c3cn4c(n3)C(c3ccc(F)c(Cl)c3)OCC4)cc12 (stereo not drawn) [Compound 154, 2-[8-(3-chloro-4-fluorophenyl)-5,6-dihydro-8H-imidazo[2,1-c][1,4]oxazin-2-yl]-4-methoxy-1H-indole-5-carbonitrile]
Aβ42 [1]
  response vs control in vivo at 30 mg/kg: 90%
Aβ40
  response vs control in vivo at 30 mg/kg: 101%
Aβ38
  response vs control in vivo at 30 mg/kg: 170%
Aβ42 [2]
  IC50: 65 nM
Aβtotal; [3]
  IC50: > 10000 nM

## COc1c(C#N)ccc2[nH]c(-c3cn4c(n3)C(c3cc(F)ccc3C)OCC4)cc12 (stereo not drawn) [Compound 158, 2-[8-(5-fluoro-2-methylphenyl)-5,6-dihydro-8H-imidazo[2,1-c][1,4]oxazin-2-yl]-4-methoxy-1H-indole-5-carbonitrile]
other
  melting point: 280.1 °C
Aβ42 [1]
  response vs control in vivo at 30 mg/kg: 66%
Aβ40
  response vs control in vivo at 30 mg/kg: 87%
Aβ38
  response vs control in vivo at 30 mg/kg: 140%
Aβ42 [2]
  IC50: 23 nM
Aβtotal; [3]
  IC50: > 10000 nM

## COc1c(C#N)ccc2[nH]c(-c3cn4c(n3)C(c3cc(C(F)(F)F)ccc3F)OCC4)cc12 (stereo not drawn) [Compound 164, 2-[8-[2-fluoro-5-(trifluoromethyl)phenyl]-5,6-dihydro-8H-imidazo[2,1-c][1,4]oxazin-2-yl]-4-methoxy-1H-indole-5-carbonitrile]
Aβ42 [1]
  response vs control in vivo at 30 mg/kg: 65%
Aβ40
  response vs control in vivo at 30 mg/kg: 81%
Aβ38
  response vs control in vivo at 30 mg/kg: 141%
Aβ42 [2]
  IC50: 41 nM
Aβtotal; [3]
  IC50: > 10000 nM
